Measurements published in PubChem BioAssay (NCI).
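GI50 = concentration required for 50% inhibition of growth. TGI marks complete inhibition of growth.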

What was measured:
Experiment in all cases: NCI-60 cell line screen, 384-well format
PC-3 prostate = test system: PC-3 prostate
SF-268 CNS = test system: SF-268 CNS
A549 NSCLC = test system: A549 NSCLC
MALME-3M melanoma = test system: MALME-3M melanoma
HOP-92 NSCLC = test system: HOP-92 NSCLC
SW-620 colon = test system: SW-620 colon
LOX IMVI melanoma = test system: LOX IMVI melanoma
ACHN renal = test system: ACHN renal
HS 578T breast = test system: HS 578T breast
TK-10 renal = test system: TK-10 renal
HL-60(TB) leukemia = test system: HL-60(TB) leukemia
SF-539 CNS = test system: SF-539 CNS
NCI-H226 lung = test system: NCI-H226 lung
M14 melanoma = test system: M14 melanoma
786-0 renal = test system: 786-0 renal
NCI-H460 NSCLC = test system: NCI-H460 NSCLC
MDA-MB-435 melanoma = test system: MDA-MB-435 melanoma
SNB-19 CNS = test system: SNB-19 CNS
SF-295 CNS = test system: SF-295 CNS
HCT-116 colon = test system: HCT-116 colon
HT29 colon = test system: HT29 colon
BT-549 breast = test system: BT-549 breast
SN12C renal = test system: SN12C renal
SK-OV-3 ovarian = test system: SK-OV-3 ovarian
T-47D breast = test system: T-47D breast
U251 glioblastoma = test system: U251 glioblastoma
HOP-62 NSCLC = test system: HOP-62 NSCLC
SK-MEL-28 melanoma = test system: SK-MEL-28 melanoma
CCRF-CEM leukemia = test system: CCRF-CEM leukemia
SR leukemia = test system: SR leukemia
MDA-MB-468 breast = test system: MDA-MB-468 breast
K-562 leukemia = test system: K-562 leukemia
RPMI-8226 leukemia = test system: RPMI-8226 leukemia
OVCAR-8 ovarian = test system: OVCAR-8 ovarian
NCI/ADR-RES ovarian = test system: NCI/ADR-RES ovarian
NCI-H322M lung = test system: NCI-H322M lung
OVCAR-3 ovarian = test system: OVCAR-3 ovarian
MCF7 breast = test system: MCF7 breast
OVCAR-5 ovarian = test system: OVCAR-5 ovarian
SNB-75 CNS = test system: SNB-75 CNS
UACC-257 melanoma = test system: UACC-257 melanoma
HCC-2998 colon = test system: HCC-2998 colon
SK-MEL-2 melanoma = test system: SK-MEL-2 melanoma
IGROV1 ovarian = test system: IGROV1 ovarian
UACC-62 melanoma = test system: UACC-62 melanoma
MDA-MB-231 breast = test system: MDA-MB-231 breast
MOLT-4 leukemia = test system: MOLT-4 leukemia
NCI-H522 lung = test system: NCI-H522 lung
COLO 205 colon = test system: COLO 205 colon
DU-145 prostate = test system: DU-145 prostate
HCT-15 colon = test system: HCT-15 colon
KM12 colon = test system: KM12 colon
SK-MEL-5 melanoma = test system: SK-MEL-5 melanoma
RXF 393 renal = test system: RXF 393 renal
NCI-H23 lung = test system: NCI-H23 lung
A498 renal = test system: A498 renal
OVCAR-4 ovarian = test system: OVCAR-4 ovarian
EKVX NSCLC = test system: EKVX NSCLC
CAKI-1 renal = test system: CAKI-1 renal

## C[C@@H]1CCN(C(=O)CC#N)C[C@@H]1N(C)c1ncnc2[nH]ccc12
PC-3 prostate
  GI50: > 100 µM
  TGI: > 100 µM
SF-268 CNS
  GI50: 99.8 µM
  TGI: > 100 µM
A549 NSCLC
  GI50: > 100 µM
  TGI: > 100 µM
MALME-3M melanoma
  GI50: > 100 µM
  TGI: > 100 µM
HOP-92 NSCLC
  GI50: > 100 µM
  TGI: > 100 µM
SW-620 colon
  GI50: > 100 µM
  TGI: > 100 µM
LOX IMVI melanoma
  GI50: > 100 µM
  TGI: > 100 µM
ACHN renal
  GI50: > 100 µM
  TGI: > 100 µM
HS 578T breast
  GI50: > 100 µM
  TGI: > 100 µM
TK-10 renal
  GI50: > 71.4 µM
  TGI: > 100 µM
HL-60(TB) leukemia
  GI50: > 100 µM
  TGI: > 100 µM
SF-539 CNS
  GI50: > 100 µM
  TGI: > 100 µM
NCI-H226 lung
  GI50: > 42.6 µM
  TGI: > 85.5 µM
M14 melanoma
  GI50: > 100 µM
  TGI: > 100 µM
786-0 renal
  GI50: > 100 µM
  TGI: > 100 µM
NCI-H460 NSCLC
  GI50: > 100 µM
  TGI: > 100 µM
MDA-MB-435 melanoma
  GI50: > 100 µM
  TGI: > 100 µM
SNB-19 CNS
  GI50: > 100 µM
  TGI: > 100 µM
SF-295 CNS
  GI50: > 100 µM
  TGI: > 100 µM
HCT-116 colon
  GI50: > 100 µM
  TGI: > 100 µM
HT29 colon
  GI50: > 100 µM
  TGI: > 100 µM
BT-549 breast
  GI50: > 100 µM
  TGI: > 100 µM
SN12C renal
  GI50: > 94 µM
  TGI: > 100 µM
SK-OV-3 ovarian
  GI50: > 58 µM
  TGI: > 100 µM
T-47D breast
  GI50: > 100 µM
  TGI: > 100 µM
U251 glioblastoma
  GI50: > 100 µM
  TGI: > 100 µM
HOP-62 NSCLC
  GI50: > 100 µM
  TGI: > 100 µM
SK-MEL-28 melanoma
  GI50: > 100 µM
  TGI: > 100 µM
CCRF-CEM leukemia
  GI50: > 100 µM
  TGI: > 100 µM
SR leukemia
  GI50: > 100 µM
  TGI: > 100 µM
MDA-MB-468 breast
  GI50: > 100 µM
  TGI: > 100 µM
K-562 leukemia
  GI50: > 100 µM
  TGI: > 100 µM
RPMI-8226 leukemia
  GI50: > 100 µM
  TGI: > 100 µM
OVCAR-8 ovarian
  GI50: > 100 µM
  TGI: > 100 µM
NCI/ADR-RES ovarian
  GI50: > 100 µM
  TGI: > 100 µM
NCI-H322M lung
  GI50: > 100 µM
  TGI: > 100 µM
OVCAR-3 ovarian
  GI50: > 100 µM
  TGI: > 100 µM
MCF7 breast
  GI50: > 100 µM
  TGI: > 100 µM
OVCAR-5 ovarian
  GI50: 62 µM
  TGI: > 100 µM
SNB-75 CNS
  GI50: 61.5 µM
  TGI: > 100 µM
UACC-257 melanoma
  GI50: > 100 µM
  TGI: > 100 µM
HCC-2998 colon
  GI50: > 100 µM
  TGI: > 100 µM
SK-MEL-2 melanoma
  GI50: > 100 µM
  TGI: > 100 µM
IGROV1 ovarian
  GI50: > 79.9 µM
  TGI: > 100 µM
UACC-62 melanoma
  GI50: > 100 µM
  TGI: > 100 µM
MDA-MB-231 breast
  GI50: 62.5 µM
  TGI: > 100 µM
MOLT-4 leukemia
  GI50: > 100 µM
  TGI: > 100 µM
NCI-H522 lung
  GI50: > 83.7 µM
  TGI: > 100 µM
COLO 205 colon
  GI50: > 100 µM
  TGI: > 100 µM
DU-145 prostate
  GI50: > 100 µM
  TGI: > 100 µM
HCT-15 colon
  GI50: > 100 µM
  TGI: > 100 µM
KM12 colon
  GI50: > 100 µM
  TGI: > 100 µM
SK-MEL-5 melanoma
  GI50: > 100 µM
  TGI: > 100 µM
RXF 393 renal
  GI50: > 80.4 µM
  TGI: > 100 µM
NCI-H23 lung
  GI50: > 100 µM
  TGI: > 100 µM
A498 renal
  GI50: > 100 µM
  TGI: > 100 µM
OVCAR-4 ovarian
  GI50: > 100 µM
  TGI: > 100 µM
EKVX NSCLC
  GI50: > 100 µM
  TGI: > 100 µM
CAKI-1 renal
  GI50: > 100 µM
  TGI: > 100 µM
